Reference: US4795812A, “4-substituted-6-aryl-pyrimidine compounds” (The Upjohn Company, priority 1986, dated 1989)
≈ marks a conversion by molar mass, not a printed value. Where two headings read alike, the source gives them in different places. Values belong to the molecule of their own block, whether it stands above or below them.

Experiments:
test organisms = assay: In vitro disk plate assay, test organisms other than Proteus vulgaris; type: cell-based
Experimental: (§1) The antibacterial spectrum of 4-(1-azindinyl)-6-phenyl-2-pyrimidinamine was determined in an in vitro disk plate assay. The assay procedure is as follows:
(§2) A solution of 4-(1-aziridinyl)-6-phenyl-2-pyrimidinamine was prepared at 1 mg/ml in distilled water. Paper assay disks (1/2 inch) were dripped into the solution and spotted on seeded agar trays.

[1] = test system: L-1210 mouse leukemia cells; assay: L-1210 tube dilution assay, inhibition of mouse leukemia cell growth in vitro; type: cell-based; conditions: for inhibition of growth of L-1210 cells (in words): in vitro; for IC50 / IC90: Mus musculus
From the text: ID50 and ID90 refer to the concentration of compound needed to inhibit cell growth by 50 and 90 percent, respectively.

P. vulgaris = assay: In vitro disk plate assay, Proteus vulgaris; type: cell-based
Experimental: as §1, §2

S. schottmuelleri = assay: In vitro disk plate assay, S. schottmuelleri; type: cell-based; conditions: medium B (Nutrient Agar); 1 mg/ml in distilled water, 1/2 inch disk, 18 hours
Experimental: as §1, §2

S. aureus = assay: In vitro disk plate assay, S. aureus; type: cell-based; conditions: medium B (Nutrient Agar); 1 mg/ml in distilled water, 1/2 inch disk, 18 hours
Experimental: as §1, §2

K. pneumoniae = assay: In vitro disk plate assay, K. pneumoniae; type: cell-based; conditions: medium A (Streptomycin Assay Agar); 1 mg/ml in distilled water, 1/2 inch disk, 18 hours
Experimental: as §1, §2

[2] = test system: Rhodopseudomonas spheroides; assay: In vitro disk plate assay, Rhodopseudomonas spheroides; type: cell-based; conditions: medium F (Plate Count Medium); 1 mg/ml in distilled water, 1/2 inch disk, 18 hours
Experimental: as §1, §2

S. lutea = assay: In vitro disk plate assay, S. lutea; type: cell-based; conditions: 1 mg/ml in distilled water, 1/2 inch disk, 18 hours
Experimental: as §1, §2

P388 leukemia = assay: In vivo P-388 mouse leukemia test (i.p.); conditions: for % ILS (% increase in life span of treated compared to control animals) / Weight Change: daily × 9, i.p.; for % ILS (% increase in life span of treated compared to control animals): Klucel suspension; for Weight Change: between days 1 and 5 after tumor inoculation
From the text: (§3) The P-388 mouse leukemia test is described in detail in a publication by G. L. Neil, et al, Cancer Treatment Reports 63, 1971-1978 (1979).
(§4) ^a mg/kg/day, daily × 9, i.p., administered as a Klucel
(§5) ^b % increase in life span of treated compared to control animals.
(§6) ^c g/mouse between days 1 and 5 after tumor inoculation.
(§7) The NCI-designated criteria of significant activity for synthetic agents in these 3 systems are: for P388, 20% ILS; L1210 and B16, 25% ILS.

B-16 melanoma = assay: In vivo B-16 melanoma test in mice (i.p.); set-up: species or system mouse; conditions: for % ILS (% increase in life span of treated compared to control animals) / Weight Change: i.p.-B16, daily × 9, i.p.; for % ILS (% increase in life span of treated compared to control animals): Klucel suspension; for Weight Change: between days 1 and 5 after tumor inoculation
From the text: as §3, §4, §5, §6, §7

Ps. aeruginosa = assay: In vitro disk plate assay, Ps. aeruginosa; type: cell-based; conditions: medium B (Nutrient Agar); 1 mg/ml in distilled water, 1/2 inch disk, 18 hours
Experimental: as §1, §2

L-1210 leukemia = assay: In vivo L-1210 leukemia test in mice (i.p.); set-up: species or system mouse; conditions: for % ILS (% increase in life span of treated compared to control animals) / Weight Change: i.p.-L1210, daily × 9, i.p.; for % ILS (% increase in life span of treated compared to control animals): Klucel suspension; for Weight Change: between days 1 and 5 after tumor inoculation
From the text: as §3, §4, §5, §6, §7

E. coli = assay: In vitro disk plate assay, E. coli; type: cell-based; conditions: 1 mg/ml in distilled water, 1/2 inch disk, 18 hours
Experimental: as §1, §2

B. fragilis = assay: In vitro disk plate assay, B. fragilis; type: cell-based; conditions: medium H (Schaedler Agar); 1 mg/ml in distilled water, 1/2 inch disk, 18 hours
Experimental: as §1, §2

S. pastorianus = assay: In vitro disk plate assay, S. pastorianus; type: cell-based; conditions: medium G (Gray's Medium); 1 mg/ml in distilled water, 1/2 inch disk, 18 hours
Experimental: as §1, §2

M. avium = assay: In vitro disk plate assay, M. avium; type: cell-based; conditions: medium D (Brain Heart Infusion Agar); 1 mg/ml in distilled water, 1/2 inch disk, 18 hours
Experimental: as §1, §2

S. pyogenes = assay: In vitro disk plate assay, S. pyogenes; type: cell-based, Streptococcus pyogenes; conditions: medium D (Brain Heart Infusion Agar); 1 mg/ml in distilled water, 1/2 inch disk, 18 hours
Experimental: as §1, §2

[3] = i.p.-P388, first series, 5 mg/kg/day
[4] = i.p.-P388, first series, 10 mg/kg/day
[5] = i.p.-P388, first series, 20 mg/kg/day
[6] = i.p.-P388, first series, 40 mg/kg/day
[7] = i.p.-P388, second series, 5 mg/kg/day
[8] = i.p.-P388, second series, 10 mg/kg/day
[9] = i.p.-P388, second series, 20 mg/kg/day
[10] = i.p.-P388, second series, 40 mg/kg/day
[11] = L1210 cells in vitro, 50 percent inhibition of cell growth, read-out: L1210 ID50
[12] = L1210 cells in vitro, 90 percent inhibition of cell growth, read-out: L1210 ID90

Compound: Nc1nc(Cl)cc(-c2ccccc2)n1 [Example 1, 4-chloro-6-phenyl-2-pyrimidinamine]
antibacterial activity against the other test organisms (in words) (test organisms): No other antibacterial activity against the test organisms was observed
inhibition of growth of L-1210 cells (in words) [1]: inhibit the growth of L-1210 mouse leukemia cells in vitro
zone of inhibition at 1000 µg/mL (P. vulgaris; 18 h, Proteus vulgaris, above-identified in vitro disk plate assay, medium not given): 20 mm

Compound: Nc1nc(-c2ccccc2)cc(N2CC2)n1 [Example 2, 4-(1-aziridyl)-6-phenyl-2-pyrimidinamine]
Zone of Inhibition (S. schottmuelleri): 0 mm
Zone of Inhibition (S. aureus): 0 mm
Zone of Inhibition (K. pneumoniae): 0 mm
Zone of Inhibition [2]: 18 mm
Zone of Inhibition (S. lutea; S. lutea+, medium B (Nutrient Agar)): 0 mm
Zone of Inhibition (S. lutea; S. luteau, medium C (PenAssay Seed Agar)): 0 mm
% ILS (% increase in life span of treated compared to control animals) (P388 leukemia; [3]): 10%
Weight Change (P388 leukemia; [3]): +1.8 g/mouse
% ILS (% increase in life span of treated compared to control animals) (P388 leukemia; [4]): 11%
Weight Change (P388 leukemia; [4]): +2.1 g/mouse
% ILS (% increase in life span of treated compared to control animals) (P388 leukemia; [5]): 25%
Weight Change (P388 leukemia; [5]): -0.7 g/mouse
% ILS (% increase in life span of treated compared to control animals) (P388 leukemia; [6]): 47%
Weight Change (P388 leukemia; [6]): -3.8 g/mouse
% ILS (% increase in life span of treated compared to control animals) (P388 leukemia; [7]): 14%
Weight Change (P388 leukemia; [7]): +1.8 g/mouse
% ILS (% increase in life span of treated compared to control animals) (P388 leukemia; [8]): 11%
Weight Change (P388 leukemia; [8]): +2.1 g/mouse
% ILS (% increase in life span of treated compared to control animals) (P388 leukemia; [9]): 17%
Weight Change (P388 leukemia; [9]): +0.5 g/mouse
% ILS (% increase in life span of treated compared to control animals) (P388 leukemia; [10]): 26%
Weight Change (P388 leukemia; [10]): -2.0 g/mouse
in vivo activity against P388 leukemia (in words) (P388 leukemia; mice): demonstrated activity in vivo against P388 and L-1210 leukemias in mice
% ILS (% increase in life span of treated compared to control animals) (B-16 melanoma; 6.3 mg/kg/day): 2%
Weight Change (B-16 melanoma; 6.3 mg/kg/day): +1.2 g/mouse
% ILS (% increase in life span of treated compared to control animals) (B-16 melanoma; 12.5 mg/kg/day): 4%
Weight Change (B-16 melanoma; 12.5 mg/kg/day): +0.3 g/mouse
% ILS (% increase in life span of treated compared to control animals) (B-16 melanoma; 25 mg/kg/day): 11%
Weight Change (B-16 melanoma; 25 mg/kg/day): -0.5 g/mouse
% ILS (% increase in life span of treated compared to control animals) (B-16 melanoma; 50 mg/kg/day): 7%
Weight Change (B-16 melanoma; 50 mg/kg/day): -3.0 g/mouse
in vivo activity against B-16 melanoma (in words) (B-16 melanoma; mice): no in vivo activity in mice against B-16 melanoma
Zone of Inhibition (Ps. aeruginosa): 0 mm
% ILS (% increase in life span of treated compared to control animals) (L-1210 leukemia; 5 mg/kg/day): 0%
Weight Change (L-1210 leukemia; 5 mg/kg/day): +1.2 g/mouse
% ILS (% increase in life span of treated compared to control animals) (L-1210 leukemia; 10 mg/kg/day): 0%
Weight Change (L-1210 leukemia; 10 mg/kg/day): +1.5 g/mouse
% ILS (% increase in life span of treated compared to control animals) (L-1210 leukemia; 20 mg/kg/day): 9%
Weight Change (L-1210 leukemia; 20 mg/kg/day): +0.6 g/mouse
% ILS (% increase in life span of treated compared to control animals) (L-1210 leukemia; 40 mg/kg/day): 24%
Weight Change (L-1210 leukemia; 40 mg/kg/day): -2.4 g/mouse
in vivo activity against L-1210 leukemia (in words) (L-1210 leukemia; mice): demonstrated activity in vivo against P388 and L-1210 leukemias in mice
Zone of Inhibition (E. coli; medium B (Nutrient Agar)): 0 mm
Zone of Inhibition (E. coli; medium E (Synthetic Medium)): 0 mm
Zone of Inhibition (B. fragilis): 23 mm
inhibition of growth of L-1210 cells (in words) [1]: inhibit the growth of L-1210 mouse leukemia cells in vitro
Zone of Inhibition (S. pastorianus): 0 mm
Zone of Inhibition (M. avium): 0 mm
Zone of Inhibition (S. pyogenes): 21 mm
Zone of Inhibition (P. vulgaris; medium B (Nutrient Agar), 1 mg/ml in distilled water, 1/2 inch disk, 18 hours): 0 mm

Compound: Nc1nc(-c2ccccc2)c(Br)c(N2CC2)n1 [Example 3, 4-(1-aziridyl)-5-bromo-6-phenyl-2-pyrimidinamine]
inhibition of growth of L-1210 cells (in words) [1]: inhibit the growth of L-1210 mouse leukemia cells in vitro

Compound: Nc1nc(Cl)c(F)c(-c2ccccc2)n1 [Example 4, 4-chloro-5-fluoro-6-phenyl-2-pyrimidinamine]
inhibition of growth of L-1210 cells (in words) [1]: inhibit the growth of L-1210 mouse leukemia cells in vitro

Compound: Nc1nc(NCCN2CC2)c(F)c(-c2ccccc2)n1 [Example 5, N'-[2-(1-aziridyl)ethyl]-5-fluoro-6-phenyl-2,4-pyrimidinediamine]
inhibition of growth of L-1210 cells (in words) [1]: inhibit the growth of L-1210 mouse leukemia cells in vitro

Compound: Nc1nc(Cl)c(Br)c(-c2ccccc2)n1 [Example 6, 5-bromo-4-chloro-6-phenyl-2-pyrimidinamine]
inhibition of growth of L-1210 cells (in words) [1]: inhibit the growth of L-1210 mouse leukemia cells in vitro

Compound: Nc1nc(Cl)c(Cl)c(-c2ccccc2)n1 [Example 7, 4,5-dichloro-6-phenyl-2-pyrimidinamine]
inhibition of growth of L-1210 cells (in words) [1]: inhibit the growth of L-1210 mouse leukemia cells in vitro

Compound: Nc1nc(Cl)c(I)c(-c2ccccc2)n1 [Example 8, 4-chloro-5-iodo-6-phenyl-2-pyrimidinamine]
inhibition of growth of L-1210 cells (in words) [1]: inhibit the growth of L-1210 mouse leukemia cells in vitro

Compound: Nc1nc(-c2ccccc2)c(Br)c(N2CC2)n1 [drawing 5]
IC50 ([1]; L1210, read-out: L1210 ID50): 1.2 µg/mL (≈ 4.12 µM)
IC90 ([1]; L1210, read-out: L1210 ID90): 3.2 µg/mL (≈ 11 µM)

Compound: Nc1nc(NCCN2CC2)c(F)c(-c2ccccc2)n1 [drawing 6]
IC50 ([1]; L1210, read-out: L1210 ID50): 0.78 µg/mL (≈ 2.85 µM)
IC90 ([1]; L1210, read-out: L1210 ID90): 2.1 µg/mL (≈ 7.68 µM)

IC50 [1, 11]: 0.18 µg/mL (≈ 0.805 µM)
IC90 [1, 12]: 0.55 µg/mL (≈ 2.46 µM)
Compound: Nc1nc(Cl)c(F)c(-c2ccccc2)n1 [drawing 7]

IC50 [1, 11]: 0.91 µg/mL (≈ 3.79 µM)
IC90 [1, 12]: 2.1 µg/mL (≈ 8.75 µM)
Compound: Nc1nc(Cl)c(Cl)c(-c2ccccc2)n1 [drawing 8]

IC50 [1, 11]: 1.8 µg/mL (≈ 5.43 µM)
IC90 [1, 12]: 3.9 µg/mL (≈ 11.8 µM)
Compound: Nc1nc(Cl)c(I)c(-c2ccccc2)n1 [drawing 9]

IC50 [1, 11]: 0.64 µg/mL (≈ 2.25 µM)
IC90 [1, 12]: 1.6 µg/mL (≈ 5.62 µM)
Compound: Nc1nc(Cl)c(Br)c(-c2ccccc2)n1 [drawing 10]

Compound: Nc1nc(Cl)cc(-c2ccccc2)n1 [drawing 11]
IC50 [1, 11]: 8.2 µg/mL (≈ 39.9 µM)
IC90 [1, 12]: 19 µg/mL (≈ 92.4 µM)
